Source: US20200131129A1, “FARNESOID X RECEPTOR AGONISTS AND USES THEREOF” (Metacrine, Inc., priority 2017, published 2020)

Biological target: T1, hFXR (Homo sapiens, UniProt Q96RI1)
T1 construct: expressed in transfected cells; host or cells: CV-1 cells
T1 sequence (Q96RI1 1-486): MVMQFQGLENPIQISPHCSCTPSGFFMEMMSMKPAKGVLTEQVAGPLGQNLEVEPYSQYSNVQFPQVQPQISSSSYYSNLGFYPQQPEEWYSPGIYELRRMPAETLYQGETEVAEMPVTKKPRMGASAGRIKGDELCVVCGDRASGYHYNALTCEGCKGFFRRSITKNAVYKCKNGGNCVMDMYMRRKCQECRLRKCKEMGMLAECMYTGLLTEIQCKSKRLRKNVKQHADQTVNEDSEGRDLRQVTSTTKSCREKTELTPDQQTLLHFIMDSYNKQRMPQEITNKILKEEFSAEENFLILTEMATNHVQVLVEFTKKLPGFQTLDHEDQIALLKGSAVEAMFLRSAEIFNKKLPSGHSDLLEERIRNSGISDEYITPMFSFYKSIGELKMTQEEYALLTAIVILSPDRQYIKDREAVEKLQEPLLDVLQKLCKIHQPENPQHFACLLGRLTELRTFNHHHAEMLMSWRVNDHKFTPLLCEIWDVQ
T1 sequence (P19793 1-462 partner): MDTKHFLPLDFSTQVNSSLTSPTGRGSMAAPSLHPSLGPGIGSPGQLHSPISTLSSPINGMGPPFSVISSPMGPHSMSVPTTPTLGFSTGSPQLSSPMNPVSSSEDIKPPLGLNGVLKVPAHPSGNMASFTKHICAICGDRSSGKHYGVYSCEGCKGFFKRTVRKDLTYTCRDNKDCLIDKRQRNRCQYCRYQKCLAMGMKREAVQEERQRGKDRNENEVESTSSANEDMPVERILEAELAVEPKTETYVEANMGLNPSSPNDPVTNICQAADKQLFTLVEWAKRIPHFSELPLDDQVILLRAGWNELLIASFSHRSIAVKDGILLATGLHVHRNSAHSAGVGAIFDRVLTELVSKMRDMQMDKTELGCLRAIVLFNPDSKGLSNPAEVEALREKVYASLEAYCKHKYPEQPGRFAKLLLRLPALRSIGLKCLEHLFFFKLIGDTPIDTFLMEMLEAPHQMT
Assay: In Vitro FXR Assay (TK): hFXR/hRXR TK-ECRE-luc reporter in transfected CV-1 cells
Assay type: cell-based
Conditions: CV-1 cells transfected with hFXR, hRXR, 18 hrs incubation, luminescence, maximum efficacy <25% of Fexarmine control also classified as ‘+’
Outline: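 CV-1 cells in charcoal-stripped serum were transiently transfected with hFXR, hRXR, TK-ECRE-luc reporter and pCMX-YFP plasmids for 18 h at 37 °C. Serially diluted compounds were added for 18 h, then cells were lysed and luciferase luminescence read.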

Row | SMILES | EC50 [nM]
1 | COc1ccc([C@H]2CC[C@H](CN(c3cccc(-c4coc(C5CC5)n4)c3)C(=O)[C@H]3CC[C@H](O)CC3)CC2)nc1C#N [Compound 10.14, trans-N-((trans-4-(6-Cyano-5-methoxypyridin-2-yl)cyclohexyl)methyl)-N-(3-(2-cyclopropyloxazol-4-yl)phenyl)-4-hydroxycyclohexanecarboxamide] | ≤ 500
2 | COc1ccc([C@H]2CC[C@H](CN(c3cccc(-c4ccc(N(C)C)nc4)c3)C(=O)[C@H]3CC[C@H](O)CC3)CC2)nc1C [Compound 10.15, trans-N-(3-(6-(Dimethylamino)pyridine-3-yl)phenyl)-4-hydroxy-N-((trans-4-(5-methoxy-6-methylpyridin-2-yl)cyclohexyl)methyl) cyclohexanecarboxamide] | ≤ 500
3 | COc1cnc([C@H]2CC[C@H](CN(c3cccc(-c4coc(C5CC5)n4)c3)C(=O)[C@H]3CC[C@H](O)CC3)CC2)cc1C [Compound 10.16, trans-N-(3-(2-Cyclopropyloxazol-4-yl)phenyl)-4-hydroxy-N-((trans-4-(5-methoxy-4-methylpyridin-2-yl)cyclohexyl)methyl) cyclohexanecarboxamide] | 500 to 1000
4 | COc1ccc([C@H]2CC[C@H](CN(c3cc(-c4coc(C(C)C)n4)ccn3)C(=O)[C@H]3CC[C@H](O)CC3)CC2)nc1C [Compound 10.17, trans-4-Hydroxy-N-(4-(2-isopropyloxazol-4-yl)pyridine-2-yl)-N-((trans-4-(5-methoxy-6-methylpyridin-2-yl)cyclohexyl)methyl) cyclohexanecarboxamide] | ≤ 500
5 | COc1ccc([C@H]2CC[C@H](CN(c3cc(-c4coc(C5CC5)n4)ccn3)C(=O)[C@H]3CC[C@H](O)CC3)CC2)nc1C#N [Compound 10.19, trans-N-((trans-4-(6-Cyano-5-methoxypyridin-2-yl)cyclohexyl)methyl)-N-(4-(2-cyclopropyloxazol-4-yl)pyridine-2-yl)-4-hydroxycyclohexanecarboxamide] | ≤ 500
6 | COc1ccc([C@H]2CC[C@H](CN(c3cccc(-c4coc(C(C)C)n4)c3)C(=O)[C@H]3CC[C@H](O)CC3)CC2)nc1C#N [Compound 10.20, trans-N-((trans-4-(6-Cyano-5-methoxypyridin-2-yl)cyclohexyl)methyl)-4-hydroxy-N-(3-(2-isopropyloxazol-4-yl)phenyl)cyclohexanecarboxamide] | ≤ 500
7 | Cn1ccc2cc([C@H]3CC[C@H](CN(c4cccc(-c5coc(C6CC6)n5)c4)C(=O)[C@H]4CC[C@H](O)CC4)CC3)ncc21 [Compound 10.21] | 500 to 1000
8 | CCc1nc(-c2ccnc(N(C[C@H]3CC[C@H](c4ccc(OC)c(C)n4)CC3)C(=O)[C@H]3CC[C@H](O)CC3)c2)co1 [Compound 10.22, trans-N-(4-(2-Ethyloxazol-4-yl)pyridin-2-yl)-4-hydroxy-N-((trans-4-(5-methoxy-6-methylpyridin-2-yl)cyclohexyl)methyl) cyclohexanecarboxamide] | ≤ 500
9 | COc1ncc([C@H]2CC[C@H](CN(c3cc(-c4coc(C5CC5)n4)ccn3)C(=O)[C@H]3CC[C@H](O)CC3)CC2)cc1C [Compound 10.23, trans-N-(4-(2-Cyclopropyloxazol-4-yl)pyridin-2-yl)-4-hydroxy-N-((trans-4-(6-methoxy-5-methylpyridin-3-yl)cyclohexyl)methyl) cyclohexanecarboxamide] | ≤ 500
10 | COc1ncc([C@H]2CC[C@H](CN(c3cc(-c4coc(C5CC5)n4)ccn3)C(=O)[C@H]3CC[C@H](O)CC3)CC2)cc1Cl [Compound 10.24, trans-N-((trans-4-(5-Chloro-6-methoxypyridin-3-yl)cyclohexyl)methyl)-N-(4-(2-cyclopropyloxazol-4-yl)pyridin-2-yl)-4-hydroxycyclohexanecarboxamide] | ≤ 500
11 | COc1ccc(C23CCC(CN(c4cccc(-c5coc(C6CC6)n5)c4)C(=O)[C@H]4CC[C@H](O)CC4)(CC2)CC3)cc1C [Compound 10] | ≤ 500
12 | COc1ccc([C@H]2CC[C@H](CN(c3cccc(C#Cc4ncns4)c3)C(=O)[C@H]3CC[C@H](O)CC3)CC2)cc1C [Compound 11, trans-N-(3-((1,2,4-Thiadiazol-5-yl)ethynyl)phenyl)-4-hydroxy-N-((trans-4-(4-methoxy-3-methylphenyl)cyclohexyl)methyl)cyclohexanecarboxamide] | ≤ 500
13 | COc1ccc([C@H]2CC[C@H](CN(c3cccc(C#Cc4ncco4)c3)C(=O)[C@H]3CC[C@H](O)CC3)CC2)cc1C [Compound 11.01, trans-4-Hydroxy-N-((trans-4-(4-methoxy-3-methylphenyl)cyclohexyl)methyl)-N-(3-(oxazol-2-ylethynyl)phenyl)cyclohexanecarboxamide] | ≤ 500
14 | COc1ccc([C@H]2CC[C@H](CN(c3cccc(C#Cc4nncs4)c3)C(=O)[C@H]3CC[C@H](O)CC3)CC2)cc1C [Compound 11.02, trans-N-(3-((1,3,4-Thiadiazol-2-yl)ethynyl)phenyl)-4-hydroxy-N-((trans-4-(4-methoxy-3-methylphenyl)cyclohexyl)methyl) cyclohexanecarboxamide] | ≤ 500
15 | COc1ccc([C@H]2CC[C@H](CN(c3cccc(C#Cc4nnn(C)n4)c3)C(=O)[C@H]3CC[C@H](O)CC3)CC2)cc1C [Compound 11.03, trans-4-Hydroxy-N-((trans-4-(4-methoxy-3-methylphenyl)cyclohexyl)methyl)-N-(3-((2-methyl-2H-tetrazol-5-yl)ethynyl)phenyl) cyclohexanecarboxamide] | ≤ 500
16 | COc1ccc([C@H]2CC[C@H](CN(c3cccc(C#Cc4ccccn4)c3)C(=O)[C@H]3CC[C@H](O)CC3)CC2)cc1C [Compound 11.04, trans-4-Hydroxy-N-((trans-4-(4-methoxy-3-methylphenyl)cyclohexyl)methyl)-N-(3-(pyridine-2-ylethynyl)phenyl)cyclohexanecarboxamide] | ≤ 500
17 | COc1ccc([C@H]2CC[C@H](CN(c3cccc(C#Cc4ncn(C)n4)c3)C(=O)[C@H]3CC[C@H](O)CC3)CC2)cc1C [Compound 12, trans-4-Hydroxy-N-((trans-4-(4-methoxy-3-methylphenyl)cyclohexyl)methyl)-N-(3-((1-methyl-1H-1,2,4-triazol-3-yl)ethynyl)phenyl)cyclohexanecarboxamide] | ≤ 500
18 | COc1ccc([C@H]2CC[C@H](CN(c3cccc(C#Cc4cnn(C)n4)c3)C(=O)[C@H]3CC[C@H](O)CC3)CC2)cc1C [Compound 12.01, trans-4-Hydroxy-N-((trans-4-(4-methoxy-3-methylphenyl)cyclohexyl)methyl)-N-(3-((2-methyl-2H-1,2,3-triazol-4-yl)ethynyl)phenyl)cyclohexanecarboxamide] | ≤ 500
19 | COc1ccc([C@H]2CC[C@H](CN(c3cccc(C#Cc4cn(C)nn4)c3)C(=O)[C@H]3CC[C@H](O)CC3)CC2)cc1C [Compound 12.02, trans-4-Hydroxy-N-((trans-4-(4-methoxy-3-methylphenyl)cyclohexyl)methyl)-N-(3-((1-methyl-1H-1,2,3-triazol-4-yl)ethynyl)phenyl)cyclohexanecarboxamide] | ≤ 500
20 | COc1ccc([C@H]2CC[C@H](CN(c3cccc(C#Cc4nnc[nH]4)c3)C(=O)[C@H]3CC[C@H](O)CC3)CC2)cc1C [Compound 14, trans-N-(3-((1H-1,2,4-Triazol-3-yl)ethynyl)phenyl)-4-hydroxy-N-((trans-4-(4-methoxy-3-methylphenyl)cyclohexyl)methyl)cyclohexanecarboxamide] | ≤ 500
21 | COc1ccc([C@H]2CC[C@H](CN(c3cccc(C#Cc4cn[nH]n4)c3)C(=O)[C@H]3CC[C@H](O)CC3)CC2)cc1C [Compound 14.01, trans-N-(3-((2H-1,2,3-Triazol-4-yl)ethynyl)phenyl)-4-hydroxy-N-((trans-4-(4-methoxy-3-methylphenyl)cyclohexyl)methyl) cyclohexanecarboxamide] | ≤ 500
